Literature values, collected in patent publication US6790668B1, “Monitoring patient compliance and bioavailability of drugs by deproteinizing body fluids” (Fundacao Oswaldo Cruz - Fiocruz, priority 1998, dated 2004).

Experiments:
[1] = human body; the rest by the kidneys
[2] = organic solvents; acid pH water

- Share of the drug eliminated in the bile [1]: about 80%
Compound: CO[C@H]1/C=C/O[C@@]2(C)Oc3c(C)c(O)c4c(O)c(c(/C=N/N5CCN(C)CC5)c(O)c4c3C2=O)NC(=O)/C(C)=C\C=C\[C@H](C)[C@H](O)[C@@H](C)[C@@H](O)[C@@H](C)[C@H](OC(C)=O)[C@@H]1C [rifampicin]
- Solubility [2]: soluble both in organic solvents and in acid pH water
